Data published in patent publication US5658906A, “Cysteine protease and serine protease inhibitors” (Cephalon, Inc., priority 1996, dated 1997).

What was measured:
[1] = system: calpain I in Molt-4 cells (α-spectrin breakdown products); test: Inhibition of calpain activation in intact Molt-4 cells (calpain-generated spectrin breakdown products); assay type: cell-based; conditions: Homo sapiens, calcium and ionophore (ionomycin), read-out: % Inhibition of BDPs (10 μM)
Cathepsin B = molecular target: T1, Cathepsin B (Homo sapiens, UniProt P07858); test: Inhibition and rate of inactivation of cathepsin B (Cbz-Phe-Arg-AMC hydrolysis); assay type: biochemical; conditions: pH 6.0, 0.1 mM substrate, read-out: k2 (second order rate constant of inactivation), C = Cathepsin B
T1 construct: purchased Calbiochem 219364
Description: (§1) Additionally, the order of reagents added to the plate was altered because both enzymes are constitutively active. Following inhibitor addition to the plates appropriate 2× concentrated stock dilutions of the enzyme preparations were made in assay buffer and 100 ul added to each well. The assay was initiated by addition of 100 ul of 2× concentrated stock dilution of substrate in assay buffer. Substrate hydrolysis was monitored using a Fluroskan II (ex=390 nm; em=460 nm).
(§2) Inhibition of enzyme activity was calculated as the percent decrease in the rate of substrate hydrolysis in the presence of inhibitor (.upsilon.i) relative to the rate in its absence (.upsilon.o). Comparison between .upsilon.o and .upsilon.i was made within the linear range for substrate hydrolysis. For screening, compounds were tested at 10 μM. Compounds having ≥50% inhibition at 10 μM were considered active. Apparent second order rate constants were determined from analysis of reaction progress curves under pseudo-first order conditions. Each determination represents the mean of three or more independent single cuvette analyses continually monitored via a Perkin-Elmer LS50B spectrofluorimeter. The rate of inhibition of hydrolysis was obtained by fitting the curve to the exponential equation (1):
(§3) y=Ae^-k.spsb.obs·t +B (1)
(§4) where y (Pt) is the product formed at time t. A and B are constants. A, the amplitude of the reaction, is given by [Po -P.varies. ] and B (=P.varies.) is the maximal product formed when the reaction is […]. This was corrected for the presence of equation (2): […]

Cathepsin L = molecular target: T2, Cathepsin L (Homo sapiens, UniProt P07711); test: Inhibition and rate of inactivation of cathepsin L (Cbz-Phe-Arg-AMC hydrolysis); assay type: biochemical; conditions: pH 6.0, 0.006 mM substrate, read-out: k2 (second order rate constant of inactivation), B = Cathepsin L
T2 construct: purchased Calbiochem 219402
Description: as §1, §2, §3, §4

α-chymotrypsin = molecular target: T3, α-chymotrypsin (Bos taurus, UniProt P00766); test: Inhibition of the serine protease α-chymotrypsin (Succ-Ala-Ala-Pro-Phe-AMC hydrolysis); assay type: biochemical; conditions: pH 7.5, 0.03 mM substrate
T3 construct: purchased Sigma Chem. Co. C-3142
Description: Additionally,because α-chymotrypsin is not a calcium sensitive enzyme and is constituitively active, following addition of inhibitor stocks to the 96 well plates, 100 ul of a 2 fold concentrated stock of enzyme in dilution buffer was first added and the reaction started by addition of 100 ul of a 2 fold concentrated stock of substrate in assay buffer. Substrate hydrolysis was monitored every 5 minutes up to 30 minutes using a Fluoroskan II ([…]).

T2 sequence (P07711 114-333): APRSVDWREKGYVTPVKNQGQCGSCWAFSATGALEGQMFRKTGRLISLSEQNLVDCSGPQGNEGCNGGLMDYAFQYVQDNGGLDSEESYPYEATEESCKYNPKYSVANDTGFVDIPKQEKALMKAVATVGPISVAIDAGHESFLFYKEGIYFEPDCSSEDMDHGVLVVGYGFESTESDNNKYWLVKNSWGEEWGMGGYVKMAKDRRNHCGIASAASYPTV

Row | kinact/KI (Cathepsin B) | kinact/KI (Cathepsin L) | inhibition at 10 µM (α-chymotrypsin) | SMILES | inhibition at 10 µM [1]
1 | 117000 M⁻¹ s⁻¹ | 100000 M⁻¹ s⁻¹ | 86% | CC(C)C[C@H](NC(=O)OCc1ccccc1)C(=O)N[C@@H](Cc1ccccc1)C(=O)COn1nnc2ccccc21 [Example 3, 1-[N-[N-Benzyloxycarbonyl-L-leucyl]-3S-4-phenyl-3-amino-2-oxobutyloxy]benzotriazole] | 67%
2 | 443000 M⁻¹ s⁻¹ | 3e+06 M⁻¹ s⁻¹ | 34% | CC[C@H](NC(=O)[C@H](CC(C)C)NC(=O)OCc1ccccc1)C(=O)COn1nnc2ccccc21 [Example 5, 1-[N-[N-Benzyloxycarbonyl-L-leucyl]-3S-3-amino-2-oxopentyloxy] benzotriazole] | 56%
3 | 107000 M⁻¹ s⁻¹ | 40000 M⁻¹ s⁻¹ | 81% | CC(C)C[C@H](NC(=O)OCc1ccccc1)C(=O)N[C@@H](Cc1ccccc1)C(=O)COn1nnc2cccnc21 [Example 6, 3-[N-[N-Benzyloxycarbonyl-L-leucyl]-3S-4-phenyl-3-amino-2-oxobutyloxy]-3H-triazolo[4,5-b]pyridine] | 63%
4 | 7000 M⁻¹ s⁻¹ | 70000 M⁻¹ s⁻¹ | 82% | CC(C)C[C@H](NC(=O)OCc1ccccc1)C(=O)N[C@@H](Cc1ccccc1)C(=O)COn1nnc2ccccc2c1=O [Example 28, 1-[N-[N-Benzyloxycarbonyl-L-leucyl]-3S-4-phenyl-3-amino-2-oxobutyloxy]-3-benzotriazin-4-one] | 68%
